For series [1] the following is noted: 75 weight % phosphoric acid; cited from earlier work.
The test system of the next series is radish test crop. In words: Glasshouse crop safety trial, foliar spraying. Type of series: in vivo. The settings on record: foliar spraying at 5 leaf stage, 3.4 kg P2O5 per ha in 200 litres/ha water, assessed seven days after spraying. On the procedure:
Glasshouse trials were carried out in order to assess crop safety of the composition described above. The trials were carried out using a radish test crop grown in pots in a sand medium and fed via a nutrient solution. A randomised block design using 4 replicates was employed. The product was applied by foliar spraying at the 5 leaf growth stage using a rate equivalent to 10 kg/ha in 200 litres/ha water (equating to an input of 3.4 kg P2O5 per ha). […] The crop was assessed for symptoms of phytotoxicity seven days after spraying.

Consider `O=P(O)(O)O` [phosphoric acid], for which, in series [1], the Freezing point is −20 °C. In addition, the “Symptoms of phytotoxicity (crop damage)” value in the series with radish test crop is listed as “signs of crop damage (leaf burn)”.

Source of the values: patent US20210002182A1, “NOVEL PHOSPHATIC FERTILIZERS BASED ON ALKANOLAMINE SALTS OF PHOSPHORIC ACID” (Yara UK Limited, priority 2017, published 2021).
